# Patent US20110009416A1, “PH INDEPENDENT FORMULATIONS OF 6-(5-CHLORO-2-PYRIDYL)-5-[(4-METHYL-1-PIPERAZINYL)CARBONYLOXY]-7-OXO-6,7-DIHYDRO-5H-PYRROLO[3,4-b]PYRAZINE” (SEPRACOR INC., priority 2009, published 2011)
# Assay: Dissolution over time of uncoated 3 mg eszopiclone tablets (Hanson SR8-Plus apparatus, fiber optic UV at 305 nm)
# Format: physicochemical
# Method: Dissolution over time of eszopiclone free base compounded with various solid acids was compared to that of free base at body temperature (37° C.) in dissolution media at various pH values using Hanson Research SR8—Plus Dissolution Apparatus and C-Technologies Fiber Optic UV Probes at 305 nm (excipients subtracted at 410 nm). The dissolution media used were (a) pH 1 (0.1N HCl) 50 ml of conc HCl mixed in 6 L of water; (b) pH 4.5 acetate buffer (20 mM) 5.88 g of sodium acetate trihydrate dissolved in 6 L of water, pH adjusted to 4.5 with acetic acid; (c) pH 5.5 phosphate buffer (20 mM) 16.3 g of potassium dihydrogen phosphate in 6 L of water. pH adjusted to 5.5 with NaOH; (d) pH 6.8 phosphate buffer (20 mM) 16.3 g of potassium dihydrogen phosphate in 6 L of water. pH adjusted 6.8 with NaOH. A standard dissolution protocol was used. The standard solution (0.006 mg/mL of eszopiclone free base) was prepared by weighing a known amount (−20 mg) of the free base into a 100 mL volumetric flask. 10 mL of acetonitrile was added into the flask and sonicated until the solids dissolved completely. The solution was cooled to room temperature and made up to the 100 mL mark using media and mixed well. Dilute 3 mL to 100 mL using media. The tables were prepared by transferring 500 mL dissolution media into the 6 vessels. Blank readings were taken for all the probes using media. Standards were read for individual vessels. Probes were washed with media and then inserted back into each vessel. […] The dissolution program was started immediately and readings were taken at 305 nm for 60 min (every 1 min for 20 min and then every 10 min)
# The following tables display results of dissolution experiments in deionized (DI) water of uncoated tablets formed from 3 mg free base IR eszopiclone (with no more than 0.3% (R)-zopiclone) with various acids. […] The pH values of the media was measured using a pH paper, in-situ at various time points during the dissolution experiment run in deionized (DI) water of uncoated tablets formed from 3 mg free base IR eszopiclone with 12% L-malic acid. […]
compound,measurement,setting,value
"CN1CCN(C(=O)O[C@H]2c3nccnc3C(=O)N2c2ccc(Cl)cn2)CC1 [free base, [(9S)-8-(5-chloropyridin-2-yl)-7-oxo-2,5,8-triazabicyclo[4.3.0]nona-1,3,5-trien-9-yl]-4-methyl piperazine-1-carboxylate]",dissolution profile in water (in words),"in water, FIG. 2 and FIG. 4, up to one hour",slow and incomplete
same,dissolved at one hour,"in water, FIG. 4, one hour",less than 50%
same,dissolution profile at pH 1 (in words),"pH 1, FIG. 3",dissolve rapidly and completely
